Laboratory results: patent publication US10758549B2, “Compositions of obeticholic acid and methods of use” (Intercept Pharmaceuticals, Inc., priority 2015, dated 2020)
In brackets after ≈: the same amount, converted by molar mass.

How the values were obtained:
[1] = Solubility of OCA in biologically relevant media at 37° C.; assay type: physicochemical; conditions: for solubility: physiologically relevant dissolution media
Source text: Solubility Studies of OCA in Biological Media.

patients with PBC = experiment: Example 9: randomized double-blind placebo-controlled 12-month trial of OCA in PBC; assay type: in vivo, human; conditions: for Patients who achieved response (ALP<1.67×ULN, ALP reduction ≥15%, TB≤ULN) at Month 6 / Patients who achieved response (ALP<1.67×ULN, ALP reduction ≥15%, TB≤ULN) at Month 12: ITT; for patients who experienced an increase in ALP: 12 months (placebo 36%); for Response at Month 6 [1] / Response at Month 12 [1]: Table 25 analysis; for ALP < 1.67 × ULN and Decrease ≥ 15% at Month 6 [3] / ALP < 1.67 × ULN and Decrease ≥ 15% at Month 12 [3] / ALP < 1.67 × ULN at Month 6 [3] / ALP < 1.67 × ULN at Month 12 [3] / Decrease in ALP ≥ 15% at Month 6 [3] / Decrease in ALP ≥ 15% at Month 12 [3]: patients with Baseline ALP ≥ 1.67 × ULN but < 2.0 × ULN; for ALP < 2.0 × ULN and Decrease ≥ 40% at Month 6 [2] / ALP < 2.0 × ULN and Decrease ≥ 40% at Month 12 [2] / ALP < 2.0 × ULN at Month 6 [2] / ALP < 2.0 × ULN at Month 12 [2] / Decrease in ALP ≥ 40% at Month 6 [2] / Decrease in ALP ≥ 40% at Month 12 [2]: patients with Baseline ALP ≥ 2.0 × ULN
Procedure: This example describes a randomized, double-blind, placebo-controlled, parallel-group, 12-month trial evaluating OCA in patients with PBC as a monotherapy.
Patients with inflammatory bowel disease or who had undergone gastric bypass procedures were excluded (gastric lap band was acceptable). • Medical conditions that could cause non-hepatic increases in ALP (e.g., Paget's disease)
ALP and TB composite response criteria were measured; a patient was designated as a responder if all three of the following conditions were met: • A value of ALP<1.67×ULN • ALP reduction from baseline ? 15% • A value of TB<ULN
The absolute and percent change from Baseline in ALP, gamma-glutamyl transferase (GGT), alanine aminotransferase (ALT), AST, total bilirubin, conjugated (direct) bilirubin, albumin, prothrombin time and international normalized ratio (INR) at all-time points was measured. The percentage of patients with a decrease in ALP of ? 10%, ? 15%, ? 20%, and ? 40% from Baseline or ? ULN at month 12 was measured. The percentage of patients achieving the following biochemical response criteria was also measured: • ALP ? 3×ULN and AST ? 2×ULN and bilirubin ? ULN ((Corpechot 2008);
Bile acid sequestrant (BAS) concomitant exposure. The primary analysis set used for all efficacy analyses, along with the summarization of disposition along with demographics and baseline characteristics, was the ‘Intent-to-Treat’ (ITT) analysis set. This analysis set included all randomized patients who received at least one dose of blinded study drug. When utilizing this analysis set, patients were analyzed according to the treatment group that they were randomized to regardless of the actual treatment received. It should be noted that all but one randomized patient received at least one dose of blinded study drug.
A Cochran-Mantel-Haenszel (CMH) test which adjusted for both randomization stratification variables as described above, was used for pre-specified analysis. In tandem with the CMH test, a Breslow-Day test was also conducted, to test for the homogeneity of the treatment effect across the different randomization strata.

[2] = 10 mg OCA (N = 73), listed as Obeticholic acid

- USP Solubility Rating ([1]; pH 1.2 (0.1N HCl)): Practically insoluble
- Solubility (mg/mL) ([1]; pH 1.2 (0.1N HCl), 37° C.): <LOQ
- USP Solubility Rating ([1]; pH 1.2 (FaSSGF)): Practically insoluble
- Solubility (mg/mL) ([1]; pH 1.2 (FaSSGF), 37° C.): <LOQ
- USP Solubility Rating ([1]; pH 4.5): Practically insoluble
- Solubility (mg/mL) ([1]; pH 4.5, 37° C.): <LOQ
- USP Solubility Rating ([1]; pH 5.0 (FeSSIF)): Freely soluble
- increase in OCA solubility ([1]; pH 5.0 with taurocholate and lecithin (FeSSIF) vs. pH 5.1 acetate buffer alone): 35 fold
- USP Solubility Rating ([1]; pH 6.5 (FaSSIF)): Freely soluble
- USP Solubility Rating ([1]; pH 6.8): Freely soluble
- USP Solubility Rating ([1]; pH 6.8 with surfactant): Freely soluble
- solubility ([1]; aqueous buffer, pH 6.8 (proposed dissolution medium, sodium phosphate dibasic), 37° C.): 220 µg/mL (≈ 523 µM)
- solubility ([1]; aqueous with cosolvent or surfactant or cyclodextrin, pH 6.8 with surfactant (polysorbate 80), 37° C.): 590 µg/mL (≈ 1400 µM)
- solubility ([1]; pH 5.0 (FeSSIF), 37° C.): 820 µg/mL (≈ 1950 µM)
- solubility ([1]; pH 6.5 (FaSSIF), 37° C.): 640 µg/mL (≈ 1520 µM)
SMILES: CC[C@H]1[C@@H](O)[C@@H]2[C@H](CC[C@]3(C)[C@@H]([C@H](C)CCC(=O)O)CC[C@@H]23)[C@@]2(C)CC[C@@H](O)C[C@@H]12 [OCA, 3α,7α-dihydroxy-6α-ethyl-5β-cholan-24-oic acid]
- ALP Absolute Change from Baseline to Month 12 (U/L), Mean (patients with PBC; 10 mg OCA): −11|7.1 U/L
- ALP Absolute Change from Baseline to Month 12 (U/L), Median (patients with PBC; 10 mg OCA): −99.0 U/L
- ALP Percentage Change from Baseline to Month 12 (%), Mean (patients with PBC; 10 mg OCA): −36.4%
- ALP Percentage Change from Baseline to Month 12 (%), Median (patients with PBC; 10 mg OCA): −38.3%
- Month 12 ALP Concentration (U/L), Mean (patients with PBC; 10 mg OCA): 191.2 U/L
- Month 12 ALP Concentration (U/L), Median (patients with PBC; 10 mg OCA): 181.7 U/L
- Month 12 ALP Concentration (×ULN), Mean (patients with PBC; 10 mg OCA): 1.606 ×ULN
- Month 12 ALP Concentration (×ULN), Median (patients with PBC; 10 mg OCA): 1.527 ×ULN
- Patients with ALP < 1.67 × ULN at Month 12 (patients with PBC; 10 mg OCA (N = 73)): (54.8%)
- Patients with Decrease in ALP ≥ 10% at Month 12 (patients with PBC; 10 mg OCA (N = 73)): (83.6%)
- Patients with Decrease in ALP ≥ 15% at Month 12 (patients with PBC; 10 mg OCA (N = 73)): (78.1%)
- Patients with Decrease in ALP ≥ 20% at Month 12 (patients with PBC; 10 mg OCA (N = 73)): (74.0%)
- Patients with Decrease in ALP ≥ 40% at Month 12 (patients with PBC; 10 mg OCA (N = 73)): (34.3%)
- Patients who achieved response (ALP<1.67×ULN, ALP reduction ≥15%, TB≤ULN) at Month 6 (patients with PBC; 10 mg OCA (N = 73)): 37 (50.7%)
- Patients who achieved response (ALP<1.67×ULN, ALP reduction ≥15%, TB≤ULN) at Month 6 (patients with PBC; [2]): 37 (51) %
- Patients who achieved response (ALP<1.67×ULN, ALP reduction ≥15%, TB≤ULN) at Month 12 (patients with PBC; [2]): 34 (47) %
- Patients with Decrease in ALP ≥ 15% at Month 12 (patients with PBC; 10 mg OCA (N = 73), listed as obeticholic acid): 77%
- patients who experienced an increase in ALP (patients with PBC; 10 mg obeticholic acid): 2%
- up-titrated patients who met the composite endpoint (patients with PBC; 33 patients titrated from 5 mg to 10 mg at Month 6): 39%
- ALP Absolute Change from Baseline to Month 12 (U/L), Median (patients with PBC; OCA Titration): −85.5 U/L
- ALP Percentage Change from Baseline to Month 12 (%), Mean (patients with PBC; OCA Titration): −30.5%
- ALP Percentage Change from Baseline to Month 12 (%), Median (patients with PBC; OCA Titration): −31.5%
- Month 12 ALP Concentration (U/L), Mean (patients with PBC; OCA Titration): 219.5 U/L
- Month 12 ALP Concentration (U/L), Median (patients with PBC; OCA Titration): 196.6 U/L
- Month 12 ALP Concentration (×ULN), Mean (patients with PBC; OCA Titration): 1.851 ×ULN
- Month 12 ALP Concentration (×ULN), Median (patients with PBC; OCA Titration): 1.661 ×ULN
- Patients with ALP < 1.67 × ULN at Month 12 (patients with PBC; OCA Titration (N = 70)): (47.1%)
- Patients with Decrease in ALP ≥ 10% at Month 12 (patients with PBC; OCA Titration (N = 70)): (78.6%)
- Patients with Decrease in ALP ≥ 15% at Month 12 (patients with PBC; OCA Titration (N = 70)): (77.1%)
- Patients with Decrease in ALP ≥ 20% at Month 12 (patients with PBC; OCA Titration (N = 70)): (70.0%)
- Patients with Decrease in ALP ≥ 40% at Month 12 (patients with PBC; OCA Titration (N = 70)): (30.0%)
- Patients with Decrease in ALP ≥ 15% at Month 12 (patients with PBC; OCA Titration (N = 70), listed as obeticholic acid): 77%
- Patients who achieved response (ALP<1.67×ULN, ALP reduction ≥15%, TB≤ULN) at Month 6 (patients with PBC; OCA Titration, 5 mg (N = 70)): 24 (34.3%)
- Patients who achieved response (ALP<1.67×ULN, ALP reduction ≥15%, TB≤ULN) at Month 6 (patients with PBC; OCA Titration, 5 mg (N = 70), listed as Obeticholic acid): 24 (34) %
- Patients who achieved response (ALP<1.67×ULN, ALP reduction ≥15%, TB≤ULN) at Month 12 (patients with PBC; OCA Titration, 5 mg or 10 mg (N = 70), listed as Obeticholic acid): 32 (46) %
- Response at Month 6 [1] (patients with PBC; 10 mg OCA (N = 60)): (41.7%)
- Response at Month 12 [1] (patients with PBC; 10 mg OCA (N = 60)): (43.3%)
- Response at Month 6 [1] (patients with PBC; OCA Titration (N = 60)): (35.0%)
- Response at Month 12 [1] (patients with PBC; OCA Titration (N = 60)): (38.3%)
- responders who became non-responders (patients with PBC; continued dosing of 5 mg QD, month 6 to month 12): 19%
- ALP < 1.67 × ULN and Decrease ≥ 15% at Month 6 [3] (patients with PBC; 10 mg OCA): (88.9%)
- ALP < 1.67 × ULN and Decrease ≥ 15% at Month 12 [3] (patients with PBC; 10 mg OCA): (77.8%)
- ALP < 1.67 × ULN at Month 6 [3] (patients with PBC; 10 mg OCA): (94.4%)
- ALP < 1.67 × ULN at Month 12 [3] (patients with PBC; 10 mg OCA): (88.9%)
- Decrease in ALP ≥ 15% at Month 6 [3] (patients with PBC; 10 mg OCA): (88.9%)
- Decrease in ALP ≥ 15% at Month 12 [3] (patients with PBC; 10 mg OCA): (77.8%)
- ALP < 1.67 × ULN and Decrease ≥ 15% at Month 6 [3] (patients with PBC; OCA Titration): (76.9%)
- ALP < 1.67 × ULN and Decrease ≥ 15% at Month 12 [3] (patients with PBC; OCA Titration): (76.9%)
- ALP < 1.67 × ULN at Month 6 [3] (patients with PBC; OCA Titration): (76.9%)
- ALP < 1.67 × ULN at Month 12 [3] (patients with PBC; OCA Titration): (84.6%)
- Decrease in ALP ≥ 15% at Month 6 [3] (patients with PBC; OCA Titration): (84.6%)
- Decrease in ALP ≥ 15% at Month 12 [3] (patients with PBC; OCA Titration): (76.9%)
- ALP < 2.0 × ULN and Decrease ≥ 40% at Month 6 [2] (patients with PBC; 10 mg OCA): (21.4%)
- ALP < 2.0 × ULN and Decrease ≥ 40% at Month 12 [2] (patients with PBC; 10 mg OCA): (28.6%)
- ALP < 2.0 × ULN at Month 6 [2] (patients with PBC; 10 mg OCA): (71.4%)
- ALP < 2.0 × ULN at Month 12 [2] (patients with PBC; 10 mg OCA): (69.1%)
- Decrease in ALP ≥ 40% at Month 6 [2] (patients with PBC; 10 mg OCA): (23.8%)
- Decrease in ALP ≥ 40% at Month 12 [2] (patients with PBC; 10 mg OCA): (31.0%)
- ALP < 2.0 × ULN and Decrease ≥ 40% at Month 6 [2] (patients with PBC; OCA Titration): (23.4%)
- ALP < 2.0 × ULN and Decrease ≥ 40% at Month 12 [2] (patients with PBC; OCA Titration): (27.7%)
- ALP < 2.0 × ULN at Month 6 [2] (patients with PBC; OCA Titration): (51.1%)
- ALP < 2.0 × ULN at Month 12 [2] (patients with PBC; OCA Titration): (59.6%)
- Decrease in ALP ≥ 40% at Month 6 [2] (patients with PBC; OCA Titration): (27.7%)
- Decrease in ALP ≥ 40% at Month 12 [2] (patients with PBC; OCA Titration): (34.0%)
- patients who experienced an increase in ALP (patients with PBC; titration obeticholic acid): 5%
